Columns and labels:
AURKB (human) [1] = molecular target: AURKB (human) (UniProt Q96GD4)
EPHB3 (human) = EPHB3 (human) (UniProt P54753)
MAPK3 (human) = MAPK3 (human) (UniProt P27361)
NEK6 (human) = NEK6 (human) (UniProt Q9HC98); details: compound 1.0 µM
PAK4 (human) = PAK4 (human) (UniProt O96013)
ROCK2 (rat) = details: accession and sequence are those of the human protein
RPS6KA1 KD1 KD2 (human) = RPS6KA1 KD1 KD2 (human) (UniProt Q15418)
SRC (human) = SRC (human) (UniProt P12931)
AURKB (human) [2] = molecular target: AURKB (human) (UniProt Q96GD4); assay: KINOMEscan competition binding; details: compound 10.0 µM
CASK (human) = CASK (human) (UniProt O14936); assay: KINOMEscan competition binding; details: compound 10.0 µM
CDK9 (human) = CDK9 (human) (UniProt P50750); assay: KINOMEscan competition binding; details: compound 10.0 µM
CDKL2 (human) = CDKL2 (human) (UniProt Q92772); assay: KINOMEscan competition binding; details: compound 10.0 µM
CHUK (human) = CHUK (human) (UniProt O15111); assay: KINOMEscan competition binding; details: compound 10.0 µM
DDR2 (human) = DDR2 (human) (UniProt Q16832); assay: KINOMEscan competition binding; details: compound 10.0 µM
EPHA4 (human) = EPHA4 (human) (UniProt P54764); assay: KINOMEscan competition binding; details: compound 10.0 µM
EPHA5 (human) = EPHA5 (human) (UniProt P54756); assay: KINOMEscan competition binding; details: compound 10.0 µM
ERBB4 (human) = ERBB4 (human) (UniProt Q15303); assay: KINOMEscan competition binding; details: compound 10.0 µM
FGFR1 (human) = FGFR1 (human) (UniProt P11362); assay: KINOMEscan competition binding; details: compound 10.0 µM
FGFR4 (human) = FGFR4 (human) (UniProt P22455); assay: KINOMEscan competition binding; details: compound 10.0 µM
HIPK3 (human) = HIPK3 (human) (UniProt Q9H422); assay: KINOMEscan competition binding; details: compound 10.0 µM
IGF1R (human) = IGF1R (human) (UniProt P08069); assay: KINOMEscan competition binding; details: compound 10.0 µM
IRAK3 (human) = IRAK3 (human) (UniProt Q9Y616); assay: KINOMEscan competition binding; details: compound 10.0 µM
[3] = system: KIT (human), P10721 [L576P]; assay: KINOMEscan competition binding; details: compound 10.0 µM
LIMK2 (human) = LIMK2 (human) (UniProt P53671); assay: KINOMEscan competition binding; details: compound 10.0 µM
MAP2K1 (human) = MAP2K1 (human) (UniProt Q02750); assay: KINOMEscan competition binding; details: compound 10.0 µM
MAP2K6 (human) = MAP2K6 (human) (UniProt P52564); assay: KINOMEscan competition binding; details: compound 10.0 µM
PHKG1 (human) = PHKG1 (human) (UniProt Q16816); assay: KINOMEscan competition binding; details: compound 10.0 µM
[4] = system: PIK3CA (human), P42336 [H1047L]; assay: KINOMEscan competition binding; details: compound 10.0 µM
PIP4K2C (human) = PIP4K2C (human) (UniProt Q8TBX8); assay: KINOMEscan competition binding; details: compound 10.0 µM
PKN1 (human) = PKN1 (human) (UniProt Q16512); assay: KINOMEscan competition binding; details: compound 10.0 µM
PKN1 (human), sequence (Q16512 whole entry, looked up): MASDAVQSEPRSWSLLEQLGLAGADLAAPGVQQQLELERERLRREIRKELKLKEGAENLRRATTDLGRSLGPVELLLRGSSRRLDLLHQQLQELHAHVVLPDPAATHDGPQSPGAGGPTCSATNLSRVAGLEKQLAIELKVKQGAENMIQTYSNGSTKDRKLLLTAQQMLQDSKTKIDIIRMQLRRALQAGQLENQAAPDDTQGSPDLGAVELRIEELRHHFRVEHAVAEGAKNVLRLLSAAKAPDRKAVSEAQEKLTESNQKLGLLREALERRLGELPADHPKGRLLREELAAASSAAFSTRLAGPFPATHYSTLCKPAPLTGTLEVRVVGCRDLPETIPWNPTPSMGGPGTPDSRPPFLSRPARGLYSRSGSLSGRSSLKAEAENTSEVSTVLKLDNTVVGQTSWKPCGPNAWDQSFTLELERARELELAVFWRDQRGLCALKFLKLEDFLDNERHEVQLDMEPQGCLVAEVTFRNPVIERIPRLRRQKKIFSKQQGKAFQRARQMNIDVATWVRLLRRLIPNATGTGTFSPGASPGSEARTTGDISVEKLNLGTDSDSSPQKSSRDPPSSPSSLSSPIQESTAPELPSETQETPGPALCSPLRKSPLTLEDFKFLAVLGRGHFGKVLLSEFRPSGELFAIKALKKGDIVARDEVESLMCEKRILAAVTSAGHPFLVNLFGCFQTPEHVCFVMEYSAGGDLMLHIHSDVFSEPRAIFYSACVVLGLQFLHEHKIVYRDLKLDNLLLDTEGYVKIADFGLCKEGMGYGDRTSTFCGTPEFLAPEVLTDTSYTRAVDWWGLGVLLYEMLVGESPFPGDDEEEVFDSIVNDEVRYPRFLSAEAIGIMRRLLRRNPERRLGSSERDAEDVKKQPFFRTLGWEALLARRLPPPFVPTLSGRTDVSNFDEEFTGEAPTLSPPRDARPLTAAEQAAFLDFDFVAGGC

PLK2 (human) = PLK2 (human) (UniProt Q9NYY3); assay: KINOMEscan competition binding; details: compound 10.0 µM
PLK4 (human) = PLK4 (human) (UniProt O00444); assay: KINOMEscan competition binding; details: compound 10.0 µM
PRKACB (human) = PRKACB (human) (UniProt P22694); assay: KINOMEscan competition binding; details: compound 10.0 µM
PTK2B (human) = PTK2B (human) (UniProt Q14289); assay: KINOMEscan competition binding; details: compound 10.0 µM
RPS6KA4 KD2 (human) = RPS6KA4 KD2 (human) (UniProt O75676); assay: KINOMEscan competition binding; details: compound 10.0 µM
STK36 (human) = STK36 (human) (UniProt Q9NRP7); assay: KINOMEscan competition binding; details: compound 10.0 µM
TGFBR1 (human) = TGFBR1 (human) (UniProt P36897); assay: KINOMEscan competition binding; details: compound 10.0 µM
TGFBR2 (human) = TGFBR2 (human) (UniProt P37173); assay: KINOMEscan competition binding; details: compound 10.0 µM
WEE1 (human) = WEE1 (human) (UniProt P30291); assay: KINOMEscan competition binding; details: compound 10.0 µM

AURKB (human), sequence (Q96GD4 whole entry, looked up): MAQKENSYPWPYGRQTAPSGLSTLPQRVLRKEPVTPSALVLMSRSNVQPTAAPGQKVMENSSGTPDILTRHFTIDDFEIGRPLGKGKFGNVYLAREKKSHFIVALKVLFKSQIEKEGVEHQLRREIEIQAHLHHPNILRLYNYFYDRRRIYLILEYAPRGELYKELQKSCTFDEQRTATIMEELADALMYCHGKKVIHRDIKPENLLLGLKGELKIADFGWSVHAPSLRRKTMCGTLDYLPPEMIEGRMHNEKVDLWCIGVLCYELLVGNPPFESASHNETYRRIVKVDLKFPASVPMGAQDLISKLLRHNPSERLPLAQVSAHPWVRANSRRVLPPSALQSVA
MAPK3 (human), sequence (P27361 whole entry, looked up): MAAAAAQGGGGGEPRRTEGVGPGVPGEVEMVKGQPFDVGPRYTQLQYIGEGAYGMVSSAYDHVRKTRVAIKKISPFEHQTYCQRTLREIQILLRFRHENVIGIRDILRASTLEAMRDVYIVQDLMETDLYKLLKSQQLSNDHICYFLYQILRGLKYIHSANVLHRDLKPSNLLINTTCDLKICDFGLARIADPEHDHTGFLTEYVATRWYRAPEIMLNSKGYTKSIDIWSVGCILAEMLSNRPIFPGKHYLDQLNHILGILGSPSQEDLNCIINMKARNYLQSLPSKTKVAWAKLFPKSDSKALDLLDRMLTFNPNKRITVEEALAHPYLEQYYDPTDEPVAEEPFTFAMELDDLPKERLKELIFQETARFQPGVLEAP
SRC (human), sequence (P12931 whole entry, looked up): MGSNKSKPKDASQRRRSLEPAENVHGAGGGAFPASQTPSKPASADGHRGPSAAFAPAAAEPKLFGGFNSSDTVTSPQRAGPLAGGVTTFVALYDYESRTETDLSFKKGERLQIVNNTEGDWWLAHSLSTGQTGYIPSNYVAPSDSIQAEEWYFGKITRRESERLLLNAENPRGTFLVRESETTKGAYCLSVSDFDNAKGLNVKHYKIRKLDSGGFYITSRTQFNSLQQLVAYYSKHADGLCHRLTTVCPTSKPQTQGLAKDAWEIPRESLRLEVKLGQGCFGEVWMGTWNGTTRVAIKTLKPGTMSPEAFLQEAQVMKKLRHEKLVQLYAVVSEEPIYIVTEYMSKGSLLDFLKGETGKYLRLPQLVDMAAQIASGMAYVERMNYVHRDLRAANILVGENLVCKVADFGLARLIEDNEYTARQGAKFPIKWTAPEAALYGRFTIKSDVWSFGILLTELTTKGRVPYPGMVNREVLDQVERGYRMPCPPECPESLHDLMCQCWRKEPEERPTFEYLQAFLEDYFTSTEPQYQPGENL
PAK4 (human), sequence (O96013 whole entry, looked up): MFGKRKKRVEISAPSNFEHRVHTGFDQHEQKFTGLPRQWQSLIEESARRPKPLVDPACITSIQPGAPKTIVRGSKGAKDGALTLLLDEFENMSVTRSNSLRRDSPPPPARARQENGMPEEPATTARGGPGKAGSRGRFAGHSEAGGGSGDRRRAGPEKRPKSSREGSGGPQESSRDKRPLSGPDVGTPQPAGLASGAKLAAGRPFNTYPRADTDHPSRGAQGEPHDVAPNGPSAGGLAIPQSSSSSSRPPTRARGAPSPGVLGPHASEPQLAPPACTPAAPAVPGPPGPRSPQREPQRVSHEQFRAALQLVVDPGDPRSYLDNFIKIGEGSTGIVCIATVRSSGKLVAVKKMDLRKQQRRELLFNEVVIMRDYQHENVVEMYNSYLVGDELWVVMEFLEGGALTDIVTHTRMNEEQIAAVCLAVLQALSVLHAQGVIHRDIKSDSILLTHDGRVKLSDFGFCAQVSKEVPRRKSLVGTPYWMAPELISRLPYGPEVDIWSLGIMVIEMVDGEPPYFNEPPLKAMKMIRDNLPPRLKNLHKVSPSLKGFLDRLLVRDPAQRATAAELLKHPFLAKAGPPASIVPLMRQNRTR
RPS6KA1 KD1 KD2 (human), sequence (Q15418 whole entry, looked up): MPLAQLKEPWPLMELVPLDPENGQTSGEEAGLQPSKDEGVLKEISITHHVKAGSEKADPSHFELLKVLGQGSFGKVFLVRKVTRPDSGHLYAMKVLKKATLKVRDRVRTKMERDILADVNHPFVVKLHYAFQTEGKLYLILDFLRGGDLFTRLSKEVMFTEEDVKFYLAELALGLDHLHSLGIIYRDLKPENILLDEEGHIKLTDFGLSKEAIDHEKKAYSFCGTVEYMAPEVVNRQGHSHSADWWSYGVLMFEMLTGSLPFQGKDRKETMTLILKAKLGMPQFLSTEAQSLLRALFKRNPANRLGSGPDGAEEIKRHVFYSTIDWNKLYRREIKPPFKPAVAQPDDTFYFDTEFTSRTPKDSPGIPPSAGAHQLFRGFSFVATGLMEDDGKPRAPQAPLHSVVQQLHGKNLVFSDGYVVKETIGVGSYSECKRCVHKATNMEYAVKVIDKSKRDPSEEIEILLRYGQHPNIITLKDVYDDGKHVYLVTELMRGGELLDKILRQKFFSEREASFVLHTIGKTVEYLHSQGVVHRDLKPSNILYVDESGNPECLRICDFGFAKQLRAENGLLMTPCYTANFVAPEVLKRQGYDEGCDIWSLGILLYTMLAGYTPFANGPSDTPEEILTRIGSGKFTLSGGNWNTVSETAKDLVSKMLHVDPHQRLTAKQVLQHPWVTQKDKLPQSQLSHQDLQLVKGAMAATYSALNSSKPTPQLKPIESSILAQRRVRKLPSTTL
EPHB3 (human), sequence (P54753 whole entry, looked up): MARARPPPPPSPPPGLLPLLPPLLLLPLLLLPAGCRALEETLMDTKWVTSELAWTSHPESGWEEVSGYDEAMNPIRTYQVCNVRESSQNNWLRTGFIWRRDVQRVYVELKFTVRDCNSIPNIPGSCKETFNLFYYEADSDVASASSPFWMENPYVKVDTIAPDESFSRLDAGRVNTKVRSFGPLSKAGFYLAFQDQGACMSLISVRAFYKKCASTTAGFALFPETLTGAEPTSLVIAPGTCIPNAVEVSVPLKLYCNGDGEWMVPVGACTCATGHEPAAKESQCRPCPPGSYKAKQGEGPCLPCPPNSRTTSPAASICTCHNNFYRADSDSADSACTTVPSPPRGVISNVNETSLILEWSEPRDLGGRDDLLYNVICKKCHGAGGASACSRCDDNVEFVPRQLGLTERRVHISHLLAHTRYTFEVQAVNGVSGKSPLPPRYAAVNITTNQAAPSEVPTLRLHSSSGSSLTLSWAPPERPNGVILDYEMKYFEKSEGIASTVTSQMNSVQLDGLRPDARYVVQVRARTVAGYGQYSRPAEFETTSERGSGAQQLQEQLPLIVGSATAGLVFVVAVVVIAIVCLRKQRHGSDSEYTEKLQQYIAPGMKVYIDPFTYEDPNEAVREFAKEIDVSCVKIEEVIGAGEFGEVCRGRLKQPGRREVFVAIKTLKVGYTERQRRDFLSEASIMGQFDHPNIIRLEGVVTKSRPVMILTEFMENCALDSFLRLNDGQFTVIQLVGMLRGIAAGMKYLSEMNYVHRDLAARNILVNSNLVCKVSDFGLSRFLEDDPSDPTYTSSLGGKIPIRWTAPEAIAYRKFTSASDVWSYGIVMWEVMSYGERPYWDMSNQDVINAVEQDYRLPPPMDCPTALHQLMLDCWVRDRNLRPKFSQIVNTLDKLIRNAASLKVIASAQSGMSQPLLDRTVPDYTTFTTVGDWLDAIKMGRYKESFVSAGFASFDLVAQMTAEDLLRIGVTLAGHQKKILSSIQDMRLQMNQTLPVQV
NEK6 (human), sequence (Q9HC98 whole entry, looked up): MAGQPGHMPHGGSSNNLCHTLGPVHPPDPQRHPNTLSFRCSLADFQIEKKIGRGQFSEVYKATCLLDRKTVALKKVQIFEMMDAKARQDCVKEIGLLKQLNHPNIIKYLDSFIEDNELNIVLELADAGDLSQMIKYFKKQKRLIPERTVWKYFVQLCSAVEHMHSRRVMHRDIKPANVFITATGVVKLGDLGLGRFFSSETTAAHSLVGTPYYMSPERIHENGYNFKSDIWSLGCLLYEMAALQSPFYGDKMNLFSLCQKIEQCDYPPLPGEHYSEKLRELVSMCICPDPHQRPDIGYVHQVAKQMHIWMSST

Compound: CCC(=O)N1CCN(c2ccc(-n3c(=O)ccc4cnc5ccc(-c6cnc7ccccc7c6)cc5c43)cc2C(F)(F)F)CC1
- per cent of control (AURKB (human) [1]; compound 1.0 µM): 107%
- per cent of control (AURKB (human) [1]; compound 10.0 µM): 90%
- per cent of control (EPHB3 (human); compound 1.0 µM): 115%
- per cent of control (EPHB3 (human); compound 10.0 µM): 94%
- per cent of control (MAPK3 (human); compound 1.0 µM): 99%
- per cent of control (MAPK3 (human); compound 10.0 µM): 96%
- per cent of control (NEK6 (human)): 100%
- per cent of control (PAK4 (human); compound 1.0 µM): 110%
- per cent of control (PAK4 (human); compound 10.0 µM): 66%
- per cent of control (ROCK2 (rat); compound 1.0 µM): 96%
- per cent of control (ROCK2 (rat); compound 10.0 µM): 101%
- per cent of control (RPS6KA1 KD1 KD2 (human); compound 1.0 µM): 93%
- per cent of control (RPS6KA1 KD1 KD2 (human); compound 10.0 µM): 71%
- per cent of control (SRC (human); compound 1.0 µM): 60%
- per cent of control (SRC (human); compound 10.0 µM): 52%
- kinase still bound, per cent of control (AURKB (human) [2]): 82%
- kinase still bound, per cent of control (CASK (human)): 100%
- per cent of control (CDK9 (human)): 94%
- per cent of control (CDKL2 (human)): 58%
- kinase still bound, per cent of control (CHUK (human)): 41%
- kinase still bound, per cent of control (DDR2 (human)): 100%
- kinase still bound, per cent of control (EPHA4 (human)): 90%
- kinase still bound, per cent of control (EPHA5 (human)): 100%
- kinase still bound, per cent of control (ERBB4 (human)): 100%
- kinase still bound, per cent of control (FGFR1 (human)): 96%
- kinase still bound, per cent of control (FGFR4 (human)): 21%
- kinase still bound, per cent of control (HIPK3 (human)): 86%
- per cent of control (IGF1R (human)): 94%
- kinase still bound, per cent of control (IRAK3 (human)): 27%
- kinase still bound, per cent of control [3]: 48%
- kinase still bound, per cent of control (LIMK2 (human)): 4.8%
- kinase still bound, per cent of control (MAP2K1 (human)): 100%
- kinase still bound, per cent of control (MAP2K6 (human)): 100%
- kinase still bound, per cent of control (PHKG1 (human)): 100%
- kinase still bound, per cent of control [4]: 2.6%
- kinase still bound, per cent of control (PIP4K2C (human)): 58%
- kinase still bound, per cent of control (PKN1 (human)): 92%
- kinase still bound, per cent of control (PLK2 (human)): 85%
- kinase still bound, per cent of control (PLK4 (human)): 100%
- per cent of control (PRKACB (human)): 100%
- kinase still bound, per cent of control (PTK2B (human)): 100%
- kinase still bound, per cent of control (RPS6KA4 KD2 (human)): 100%
- kinase still bound, per cent of control (STK36 (human)): 17%
- kinase still bound, per cent of control (TGFBR1 (human)): 70%
- kinase still bound, per cent of control (TGFBR2 (human)): 77%
- kinase still bound, per cent of control (WEE1 (human)): 42%

Source: the kinase profiling compilation of Christmann-Franck et al. (2016)
